Assays:
[1] = target: Human α2δ-1 subunit of Cav2.2 calcium channel (Homo sapiens, UniProt P54289); experiment: Human α2δ-1 subunit of Cav2.2 calcium channel assay ([3H]-gabapentin binding); conditions: binding to the α2δ-1 subunit of voltage-gated calcium channels, expressed as Ki class; + also covers inhibition between 1% and 50%
Procedure: Human α2δ-1 Subunit of Cav2.2 Calcium Channel Assay
Human α2δ-1 enriched membranes (2.5 μg) were incubated with 15 nM of radiolabeled [^3H]-Gabapentin in assay buffer containing Hepes-KOH 10 mM. pH 7.4. NSB (non specific binding) was measured by adding 10 μM pregabalin. The binding of the test compound was measured at either one concentration (% inhibition at 1 or 10 μM) or five different concentrations to determine affinity values (Ki). After 60 min incubation at 27° C., binding reaction was terminated by filtering through Multiscreen GF/C (Millipore) presoaked in 0.5% polyethyleneimine in Vacuum Manifold Station, followed by 3 washes with ice-cold filtration buffer containing 50 mM Tris-HCl, pH 7.4. Filter plates were dried at 60° C. for 1 h and 30 μL of scintillation cocktail were added to each well before radioactivity reading. Readings were performed in a Trilux 1450 Microbeta radioactive counter (Perkin Elmer).

Human σ1 receptor = target: T1, Human σ1 receptor (Homo sapiens, UniProt Q99720); experiment: Human σ1 receptor radioligand assay ([3H](+)-pentazocine binding); conditions: binding to the σ1 receptor, expressed as Ki class; + also covers inhibition between 1% and 50%
T1 construct: expressed in transfected cells; host or cells: HEK-293
Procedure: Human σ1 Receptor Radioligand Assay
Transfected HEK-293 membranes (7 μg) were incubated with 5 nM of [^3H](+)-pentazocine in assay buffer containing Tris-HCl 50 mM at pH 8. NBS (non-specific binding) was measured by adding 10 μM haloperidol. The binding of the test compound was measured at either one concentration (% inhibition at 1 or 10 μM) or five different concentrations to determine affinity values (Ki). Plates were incubated at 37° C. for 120 minutes. After the incubation period, the reaction mix was then transferred to MultiScreen HTS, FC plates (Millipore), filtered and plates were washed 3 times with ice-cold 10 mM Tris-HCL (pH7.4). Filters were dried and counted at approximately 40% efficiency in a MicroBeta scintillation counter (Perkin-Elmer) using EcoScint liquid scintillation cocktail.

T1 sequence (Q99720 whole entry): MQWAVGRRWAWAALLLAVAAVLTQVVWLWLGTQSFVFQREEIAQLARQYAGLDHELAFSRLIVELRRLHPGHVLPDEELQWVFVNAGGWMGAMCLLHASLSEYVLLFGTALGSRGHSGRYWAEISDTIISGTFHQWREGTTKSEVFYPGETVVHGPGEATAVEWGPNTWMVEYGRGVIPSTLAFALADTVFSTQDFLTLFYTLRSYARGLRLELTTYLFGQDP
Human α2δ-1 subunit of Cav2.2 calcium channel, sequence (P54289 25-1103): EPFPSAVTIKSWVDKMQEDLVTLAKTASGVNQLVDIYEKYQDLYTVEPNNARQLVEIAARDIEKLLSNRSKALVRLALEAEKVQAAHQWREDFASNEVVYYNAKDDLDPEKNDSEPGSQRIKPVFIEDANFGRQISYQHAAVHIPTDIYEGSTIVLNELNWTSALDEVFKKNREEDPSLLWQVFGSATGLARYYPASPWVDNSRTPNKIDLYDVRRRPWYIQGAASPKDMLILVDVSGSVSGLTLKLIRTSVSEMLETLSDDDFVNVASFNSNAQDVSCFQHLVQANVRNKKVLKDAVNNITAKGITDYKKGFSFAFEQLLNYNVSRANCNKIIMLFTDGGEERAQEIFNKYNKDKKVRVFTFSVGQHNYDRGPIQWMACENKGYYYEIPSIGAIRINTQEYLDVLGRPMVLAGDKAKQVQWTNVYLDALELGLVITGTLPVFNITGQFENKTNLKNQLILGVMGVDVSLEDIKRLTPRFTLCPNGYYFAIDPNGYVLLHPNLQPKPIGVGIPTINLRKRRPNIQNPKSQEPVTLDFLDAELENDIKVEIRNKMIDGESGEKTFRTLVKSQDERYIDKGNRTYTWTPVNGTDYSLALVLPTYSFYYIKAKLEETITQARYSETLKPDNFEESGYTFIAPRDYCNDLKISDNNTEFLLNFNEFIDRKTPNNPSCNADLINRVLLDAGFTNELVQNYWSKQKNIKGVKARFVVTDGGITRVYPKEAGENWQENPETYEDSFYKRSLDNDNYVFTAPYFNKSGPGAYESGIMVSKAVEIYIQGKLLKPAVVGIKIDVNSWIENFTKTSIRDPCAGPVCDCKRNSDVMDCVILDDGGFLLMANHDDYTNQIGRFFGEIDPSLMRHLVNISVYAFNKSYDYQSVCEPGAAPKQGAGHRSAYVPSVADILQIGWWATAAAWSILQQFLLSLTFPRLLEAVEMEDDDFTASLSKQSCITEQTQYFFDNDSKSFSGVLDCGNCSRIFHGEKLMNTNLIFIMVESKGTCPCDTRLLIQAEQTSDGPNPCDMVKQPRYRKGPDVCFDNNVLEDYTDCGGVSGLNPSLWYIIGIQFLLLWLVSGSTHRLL

| Structure (SMILES) | Ki [1] | Ki (Human σ1 receptor) |
| --- | --- | --- |
| CCC[C@@H](c1nc2cc(Cl)c(Cl)cc2c(=O)n1CC)N1CCN(C)C[C@@H](C)C1 [Example 134, 6,7-dichloro-2-((S)-1-((R)-4,6-dimethyl-1,4-diazepan-1-yl)butyl)-3-ethylquinazolin-4(3H)-one] | > 5000 nM | 500 to 1000 nM |
| CCCC(c1nc2ccc(F)cc2c(=O)n1CC(C)C)N1CCCN(C)CC1 (stereo not drawn) [Example 43, 6-fluoro-3-isobutyl-2-(1-(4-methyl-1,4-diazepan-1-yl)butyl)quinazolin-4(3H)-one] | < 500 nM | < 500 nM |
| CCCC(c1nc2ccc(Br)cc2c(=O)n1C)N1CCCN(C)CC1 (stereo not drawn) [Example 84, 6-bromo-3-methyl-2-(1-(4-methyl-1,4-diazepan-1-yl)butyl)quinazolin-4(3H)-one] | 500 to 5000 nM | < 500 nM |
| CCC[C@H](c1nc2ccc(Br)cc2c(=O)n1CC)N1CCN[C@@H](C)CC1 [Example 93, 6-bromo-3-ethyl-2-((R)-1-((S)-5-methyl-1,4-diazepan-1-yl)butyl)quinazolin-4(3H)-one] | < 500 nM | 500 to 1000 nM |
| CCC[C@H](c1nc2ccncc2c(=O)n1CC)N1CCCN(C)CC1 [Example 173, (R)-3-Ethyl-2-(1-(4-methyl-1,4-diazepan-1-yl)butyl)pyrido[4,3-d]pyrimidin-4(3H)-one] | < 500 nM | > 1000 nM |
| CCCC(c1nc2ccc(Br)c(C)c2c(=O)n1CC)N1CCCN(CC)CC1 (stereo not drawn) [Example 47, 6-bromo-3-ethyl-2-(1-(4-ethyl-1,4-diazepan-1-yl)butyl)-5-methylquinazolin-4(3H)-one] | 500 to 5000 nM | < 500 nM |
| CCCC(c1nc2ccc(Br)c(F)c2c(=O)n1CC)N1CCCNCC1 (stereo not drawn) [Example 59, 2-(1-(1,4-diazepan-1-yl)butyl)-6-bromo-3-ethyl-5-fluoroquinazolin-4(3H)-one] | < 500 nM | > 1000 nM |
| CCC[C@H](c1nc2cc(F)c(Br)cc2c(=O)n1CC)N1CCNC[C@H](C)C1 [Example 96, 6-Bromo-3-ethyl-7-fluoro-2-((R)-1-((S)-6-methyl-1,4-diazepan-1-yl)butyl)quinazolin-4(3H)-one] | < 500 nM | 500 to 1000 nM |
| CCCC(c1nc2ccc(Br)c(C)c2c(=O)n1CC)N1CCCNCC1 (stereo not drawn) [Example 41, 2-(1-(1,4-diazepan-1-yl)butyl)-6-bromo-3-ethyl-5-methylquinazolin-4(3H)-one] | > 5000 nM | > 1000 nM |
| CCC[C@H](c1nc2ccc(Br)cc2c(=O)n1CC)N1CCN[C@H](C)CC1 [Example 92, 6-bromo-3-ethyl-2-((R)-1-((R)-5-methyl-1,4-diazepan-1-yl)butyl)quinazolin-4(3H)-one] | 500 to 5000 nM | > 1000 nM |
| CCC[C@H](c1nc2cc(F)c(F)cc2c(=O)n1CC)N1CCCN(C)CC1 [Example 232, (R)-3-ethyl-6,7-difluoro-2-(1-(4-methyl-1,4-diazepan-1-yl)butyl)quinazolin-4(3H)-one] | < 500 nM | < 500 nM |
| CCCC(c1nc2cc(C)c(Br)cc2c(=O)n1CC)N1CCCNCC1 (stereo not drawn) [Example 44, 2-(1-(1,4-diazepan-1-yl)butyl)-6-bromo-3-ethyl-7-methylquinazolin-4(3H)-one] | < 500 nM | > 1000 nM |
| CCC[C@H](c1nc2ccc(F)cc2c(=O)n1CC)N1CCCN(CC)CC1 [Example 210, (R)-3-ethyl-2-(1-(4-ethyl-1,4-diazepan-1-yl)butyl)-6-fluoroquinazolin-4(3H)-one] | < 500 nM | < 500 nM |
| CCC[C@H](c1nc2c(F)cc(Cl)cc2c(=O)n1CC)N1CCCN(C)CC1 [Example 234, (R)-6-chloro-3-ethyl-8-fluoro-2-(1-(4-methyl-1,4-diazepan-1-yl)butyl)quinazolin-4(3H)-one] | < 500 nM | 500 to 1000 nM |
| CCC[C@@H](c1nc2ccncc2c(=O)n1CC)N1CCN(C)C[C@H](C)C1 [Example 170, 2-((S)-1-((S)-4,6-dimethyl-1,4-diazepan-1-yl)butyl)-3-ethylpyrido[4,3-d]pyrimidin-4(3H)-one] | 500 to 5000 nM | > 1000 nM |
| CCCC(c1nc2ccc(Br)cc2c(=O)n1CC)N1CCCNCC1 (stereo not drawn) [Example 2, 2-(1-(1,4-diazepan-1-yl)butyl)-6-bromo-3-ethylquinazolin-4(3H)-one] | < 500 nM | > 1000 nM |
| CCCC(c1nc2ccc(Br)cc2c(=O)n1CC)N1CCNCC(C)(C)C1 (stereo not drawn) [Example 28, 6-bromo-2-(1-(6,6-dimethyl-1,4-diazepan-1-yl)butyl)-3-ethylquinazolin-4(3H)-one] | 500 to 5000 nM | 500 to 1000 nM |

| Structure (SMILES) | Ki [1] | Ki (Human σ1 receptor) |
| --- | --- | --- |
| CCCC(c1nc2c(F)cc(OC)cc2c(=O)n1CC)N1CCCN(C)CC1 (stereo not drawn) [Example 117, 3-ethyl-8-fluoro-6-methoxy-2-(1-(4-methyl-1,4-diazepan-1-yl)butyl)quinazolin-4(3H)-one] | 500 to 5000 nM | 500 to 1000 nM |
| CCC[C@H](c1nc2ccc(F)cc2c(=O)n1C(C)C)N1CCCN(CC)CC1 [Example 223, (R)-2-(1-(4-ethyl-1,4-diazepan-1-yl)butyl)-6-fluoro-3-isopropylquinazolin-4(3H)-one] | > 5000 nM | < 500 nM |
| CCCCn1c([C@@H](CCC)N2CCCN(C)CC2)nc2ccc(F)cc2c1=O [Example 224, (R)-3-butyl-6-fluoro-2-(1-(4-methyl-1,4-diazepan-1-yl)butyl)quinazolin-4(3H)-one] | < 500 nM | < 500 nM |
| CCC[C@H](c1nc2cc(Cl)c(Cl)cc2c(=O)n1CC)N1CCN(C)C[C@@H](C)C1 [Example 132, 6,7-dichloro-2-((R)-1-((R)-4,6-dimethyl-1,4-diazepan-1-yl)butyl)-3-ethylquinazolin-4(3H)-one] | < 500 nM | < 500 nM |
| CCCC(c1nc2ccc(-c3ccccc3)cc2c(=O)n1CC)N1CCCN(C)CC1 (stereo not drawn) [Example 204, 3-Ethyl-2-(1-(4-methyl-1,4-diazepan-1-yl)butyl)-6-phenylquinazolin-4(3H)-one] | < 500 nM | > 1000 nM |
| CCCC(c1nc2ccc(Br)cc2c(=O)n1CC(=O)O)N1CCCN(C)CC1 (stereo not drawn) [Example 208, 2-(6-Bromo-2-(1-(4-methyl-1,4-diazepan-1-yl)butyl)-4-oxoquinazolin-3(4H)-yl)acetic acid] | > 5000 nM | > 1000 nM |
| CCCC(c1nc2ncc(F)cc2c(=O)n1CC1CC1)N1CCCN(CC)CC1 (stereo not drawn) [Example 185, 3-(cyclopropylmethyl)-2-(1-(4-ethyl-1,4-diazepan-1-yl)butyl)-6-fluoropyrido[2,3-d]pyrimidin-4(3H)-one] | < 500 nM | > 1000 nM |
| CCC[C@H](c1nc2ccc(Br)cc2c(=O)n1CC)N1CC[C@H](C)N(C)CC1 [Example 262] | < 500 nM | 500 to 1000 nM |
| CCC[C@H](c1nc2ncc(Br)cc2c(=O)n1CC)N1CCNC[C@H](C)C1 [Example 197, 6-bormo-3-ethyl-2-((R)-1-((S)-6-methyl-1,4-diazepan-1-yl)butyl)pyrido[2,3-d]pyrimidin-4(3H)-one] | < 500 nM | > 1000 nM |
| CCCC(c1nc2c(F)cc(Br)cc2c(=O)n1CC)N1CCCN(C)CC1 (stereo not drawn) [Example 40, 6-bromo-3-ethyl-8-fluoro-2-(1-(4-methyl-1,4-diazepan-1-yl)butyl)quinazolin-4(3H)-one] | < 500 nM | 500 to 1000 nM |
| CCC[C@H](c1nc2ccc(Br)cc2c(=O)n1CC)N1CCCN[C@H](C)C1 [Example 139, 6-Bromo-3-ethyl-2-((R)-1-((R)-3-methyl-1,4-diazepan-1-yl)butyl)quinazolin-4(3H)-one] | < 500 nM | 500 to 1000 nM |
| CCC[C@H](c1nc2ccc(F)cc2c(=O)n1CCC)N1CCCN(C)CC1 [Example 211, (R)-6-fluoro-2-(1-(4-methyl-1,4-diazepan-1-yl)butyl)-3-propylquinazolin-4(3H)-one] | < 500 nM | < 500 nM |
| CCC[C@H](c1nc2ccc(Cl)cc2c(=O)n1C)N1CCN[C@H](C)CC1 [Example 245, 6-chloro-3-methyl-2-((R)-1-((R)-5-methyl-1,4-diazepan-1-yl)butyl)quinazolin-4(3H)-one] | > 5000 nM | 500 to 1000 nM |
| CCC[C@@H](c1nc2ccc(Br)cc2c(=O)n1CCC)N1CCNC[C@H](C)C1 [Example 69, 6-bromo-2-((S)-1-((S)-6-methyl-1,4-diazepan-1-yl)butyl)-3-propylquinazolin-4(3H)-one] | 500 to 5000 nM | > 1000 nM |
| CCC[C@H](c1nc2ccc(F)cc2c(=O)n1CCC(C)C)N1CCCN(CC)CC1 [Example 221, (R)-2-(1-(4-ethyl-1,4-diazepan-1-yl)butyl)-6-fluoro-3-isopentylquinazolin-4(3H)-one] | > 5000 nM | < 500 nM |
| CCCC(c1nc2ccc(F)c(F)c2c(=O)n1CC)N1CCCN(CC)CC1 (stereo not drawn) [Example 78, 3-ethyl-2-(1-(4-ethyl-1,4-diazepan-1-yl)butyl)-5,6-difluoroquinazolin-4(3H)-one] | 500 to 5000 nM | < 500 nM |

Source: patent publication US12479830B2, “Homopiperazinyl and homopiperidinyl quinazolin-4(3H)-one derivatives having multimodal activity against pain” (ESTEVE PHARMACEUTICALS, S.A., priority 2019, dated 2025)
